From patent US8802597B2, “Herbicidal pyrimidines” (E I du Pont de Nemours and Company, priority 2003, dated 2014)

Assays:
Type in all cases: in vivo
[1] = tested on: barnyardgrass (Echinochloa crus-galli); assay: Test A pre/postemergence
How it was run: (§1)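 After planting in loam and sand, species received test chemical as preemergence soil spray; postemergence spray went on 2–10 cm plants at 1–2 leaves at the same time. Evaluation: visual injury, ~10 d, 0 no effect to 100 complete control.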

[2] = tested on: giant foxtail (Setaria faberi); assay: Test A pre/postemergence
How it was run: as §1

[3] = tested on: cocklebur (Xanthium strumarium); assay: Test C pre/postemergence; conditions: for Plant response rating, Cocklebur: Preemergence
How it was run: (§2)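 Seeds sown and sprayed preemergence with test compound in non-phytotoxic solvent containing surfactant; postemergence sprays, same formulation, went onto plants 2 to 18 cm tall (1- to 4-leaf stage). Plants held in greenhouse 12 to 14 days, then visually rated against untreated controls on a 0–100 scale (0 no effect, 100 complete control).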

corn (Zea mays) = assay: Test C pre/postemergence; conditions: for Plant response rating (scale of 0 to 100), Corn: Postemergence; for Plant response rating, Corn: Preemergence
How it was run: as §2

[4] = tested on: velvetleaf (Abutilon theophrasti); assay: Test C pre/postemergence; conditions: for Plant response rating, Velvetleaf: Preemergence, scale 0 to 100, 0 no effect, 100 complete control
How it was run: as §2

[5] = tested on: crabgrass (Digitaria sanguinalis); assay: Test C pre/postemergence; conditions: for Plant response rating, Crabgrass: Preemergence
How it was run: as §2

[6] = tested on: lambsquarters (Chenopodium album); assay: Test C pre/postemergence; conditions: for Plant response rating, Lambsquarters: Preemergence
How it was run: as §2

[7] = tested on: eastern black nightshade (Solanum ptycanthum); assay: Test C pre/postemergence; conditions: Preemergence, scale 0 to 100, 0 no effect, 100 complete control
How it was run: as §2

[8] = tested on: bermudagrass (Cynodon dactylon); assay: Test C pre/postemergence; conditions: for Plant response rating (scale of 0 to 100), Bermudagrass / Bermudagrass plant response rating: Postemergence; for Bermudagrass plant response rating: scale 0 to 100 (0 no effect, 100 complete control); for Plant response rating, Bermudagrass: Preemergence
How it was run: as §2

[9] = tested on: goosegrass (Eleusine indica); assay: Test C pre/postemergence; conditions: for Plant response rating, Goosegrass: Preemergence
How it was run: as §2

[10] = Postemergence, 125 g ai/ha, 0 to 100 scale (0 no effect, 100 complete control)
[11] = Postemergence, 500 g ai/ha, 0 to 100 scale (0 no effect, 100 complete control)
[12] = Preemergence, 125 g ai/ha, 0 to 100 scale where 0 is no effect and 100 is complete control, approximately ten days
[13] = Preemergence, 500 g ai/ha, 0 to 100 scale where 0 is no effect and 100 is complete control, approximately ten days
[14] = Postemergence, 125 g ai/ha, scale 0 to 100 (0 no effect, 100 complete control)
[15] = 16 g ai/ha, scale 0 to 100, 0 no effect, 100 complete control
[16] = 31 g ai/ha, scale 0 to 100, 0 no effect, 100 complete control
[17] = 62 g ai/ha, scale 0 to 100, 0 no effect, 100 complete control

Nc1nc(-c2ccc(Cl)cc2)nc(C(=O)[O-])c1Cl.[Na+] [Compound 117]
Plant response rating, Barnyardgrass [1, 10]: 85
Plant response rating, Barnyardgrass [1, 11]: 90
Plant response rating, Barnyardgrass [1, 12]: 25
Plant response rating, Barnyardgrass [1, 13]: 85
Plant response rating, Foxtail, Giant [2, 10]: 80
Plant response rating, Foxtail, Giant [2, 11]: 90
Plant response rating, Foxtail, Giant [2, 12]: 50
Plant response rating, Foxtail, Giant [2, 13]: 85
Plant response rating (scale of 0 to 100), Cocklebur ([3]; Postemergence, 16 g ai/ha): 90
Plant response rating (scale of 0 to 100), Cocklebur ([3]; Postemergence, 62 g ai/ha): 90
Cocklebur plant response rating [3, 14]: 90
Plant response rating, Cocklebur [3, 15]: 0
Plant response rating, Cocklebur [3, 16]: 0
Plant response rating, Cocklebur [3, 17]: 5
Plant response rating, Cocklebur ([3]; 125 g ai/ha, scale 0 to 100): 90
Plant response rating (scale of 0 to 100), Corn (corn (Zea mays); 16 g ai/ha): 30
Plant response rating (scale of 0 to 100), Corn (corn (Zea mays); 31 g ai/ha): 30
Plant response rating, Corn (corn (Zea mays); [15]): 0
Plant response rating, Corn (corn (Zea mays); [16]): 5
Plant response rating, Corn (corn (Zea mays); [17]): 20
Plant response rating, Corn (corn (Zea mays); 125 g ai/ha, scale 0 to 100): 25
Plant response rating (scale of 0 to 100), Velvetleaf ([4]; Postemergence, 16 g ai/ha): 60
Plant response rating (scale of 0 to 100), Velvetleaf ([4]; Postemergence, 31 g ai/ha): 70
Plant response rating (scale of 0 to 100), Velvetleaf ([4]; Postemergence, 62 g ai/ha): 95
Velvetleaf plant response rating [4, 14]: 95
Plant response rating, Velvetleaf ([4]; 16 g ai/ha): 0
Plant response rating, Velvetleaf ([4]; 31 g ai/ha): 50
Plant response rating, Velvetleaf ([4]; 62 g ai/ha): 65
Plant response rating (scale of 0 to 100), Crabgrass ([5]; Postemergence, 16 g ai/ha): 85
Plant response rating (scale of 0 to 100), Crabgrass ([5]; Postemergence, 31 g ai/ha): 90
Plant response rating (scale of 0 to 100), Crabgrass ([5]; Postemergence, 62 g ai/ha): 90
Crabgrass plant response rating [5, 14]: 90
Plant response rating, Crabgrass [5, 15]: 0
Plant response rating, Crabgrass [5, 16]: 0
Plant response rating, Crabgrass [5, 17]: 0
Plant response rating, Crabgrass ([5]; 125 g ai/ha, scale 0 to 100): 60
Plant response rating (scale of 0 to 100), Lambsquarters ([6]; Postemergence, 16 g ai/ha): 95
Plant response rating (scale of 0 to 100), Lambsquarters ([6]; Postemergence, 31 g ai/ha): 95
Plant response rating (scale of 0 to 100), Lambsquarters ([6]; Postemergence, 62 g ai/ha): 95
Lambsquarters plant response rating [6, 14]: 95
Plant response rating, Lambsquarters [6, 15]: 20
Plant response rating, Lambsquarters [6, 16]: 100
Plant response rating, Lambsquarters [6, 17]: 100
Plant response rating, Lambsquarters ([6]; 125 g ai/ha, scale 0 to 100): 100
Plant response rating, Nightshade ([7]; 16 g ai/ha): 0
Plant response rating, Nightshade ([7]; 31 g ai/ha): 5
Plant response rating, Nightshade ([7]; 62 g ai/ha): 40
Plant response rating (scale of 0 to 100), Bermudagrass ([8]; 16 g ai/ha): 60
Plant response rating (scale of 0 to 100), Bermudagrass ([8]; 31 g ai/ha): 65
Bermudagrass plant response rating ([8]; 62 g ai/ha): 85
Bermudagrass plant response rating ([8]; 125 g ai/ha): 90
Plant response rating, Bermudagrass [8, 15]: 0
Plant response rating, Bermudagrass [8, 16]: 0
Plant response rating, Bermudagrass [8, 17]: 30
Plant response rating, Bermudagrass ([8]; 125 g ai/ha, scale 0 to 100): 65
Plant response rating (scale of 0 to 100), Goosegrass ([9]; Postemergence, 16 g ai/ha): 40
Plant response rating (scale of 0 to 100), Goosegrass ([9]; Postemergence, 31 g ai/ha): 40
Plant response rating (scale of 0 to 100), Goosegrass ([9]; Postemergence, 62 g ai/ha): 75
Goosegrass plant response rating [9, 14]: 80
Plant response rating, Goosegrass [9, 15]: 0
Plant response rating, Goosegrass [9, 16]: 0
Plant response rating, Goosegrass [9, 17]: 0
Plant response rating, Goosegrass ([9]; 125 g ai/ha, scale 0 to 100): 30
